Values after ≈ are worked out from the molar mass of the structure shown. Active and inactive are the calls of the source. No cut-off for these calls is given here.
Key:
[1] = biological target: T1, Oxysterols receptor LXR-alpha (Homo sapiens, UniProt Q13133); assay: Agonist activity at human LXRalpha expressed in human SH-SY5Y cells co-transfected with Gal4-LBD after 24 hrs by luciferase reporter gene assay; assay type: functional, cell-based
T1 sequence (Q13133 whole entry): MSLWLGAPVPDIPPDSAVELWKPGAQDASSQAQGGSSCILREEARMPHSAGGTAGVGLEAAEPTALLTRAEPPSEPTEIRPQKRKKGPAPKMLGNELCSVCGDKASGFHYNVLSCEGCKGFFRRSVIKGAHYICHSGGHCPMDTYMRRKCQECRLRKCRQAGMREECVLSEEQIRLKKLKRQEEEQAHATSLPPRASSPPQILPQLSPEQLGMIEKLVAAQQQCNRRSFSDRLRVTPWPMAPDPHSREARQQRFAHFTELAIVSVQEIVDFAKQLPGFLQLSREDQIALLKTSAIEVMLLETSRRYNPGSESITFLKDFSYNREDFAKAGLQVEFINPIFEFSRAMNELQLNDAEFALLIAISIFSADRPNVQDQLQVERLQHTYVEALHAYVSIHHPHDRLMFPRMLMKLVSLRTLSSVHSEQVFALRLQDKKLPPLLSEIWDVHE

[2] = biological target: T1, Oxysterols receptor LXR-alpha; assay: Agonist activity at LXRalpha ligand binding domain by FRET based SRC1 recruitment assay
[3] = biological target: T2, Oxysterols receptor LXR-beta (Homo sapiens, UniProt P55055); assay: Agonist activity at LXRbeta ligand binding domain by FRET based SRC1 recruitment assay
T2 sequence (P55055 whole entry): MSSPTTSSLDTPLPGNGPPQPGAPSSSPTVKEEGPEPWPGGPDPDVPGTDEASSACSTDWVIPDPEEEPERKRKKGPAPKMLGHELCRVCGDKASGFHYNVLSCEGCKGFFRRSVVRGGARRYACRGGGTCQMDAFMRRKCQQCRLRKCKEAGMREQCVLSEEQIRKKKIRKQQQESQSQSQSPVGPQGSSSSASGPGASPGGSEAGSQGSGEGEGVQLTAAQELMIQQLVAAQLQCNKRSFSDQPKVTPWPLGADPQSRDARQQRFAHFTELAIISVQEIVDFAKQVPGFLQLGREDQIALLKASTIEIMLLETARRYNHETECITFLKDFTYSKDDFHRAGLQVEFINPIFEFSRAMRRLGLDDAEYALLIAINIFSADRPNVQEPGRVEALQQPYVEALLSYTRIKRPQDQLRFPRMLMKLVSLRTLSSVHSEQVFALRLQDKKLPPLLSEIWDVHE

[4] = biological target: T2, Oxysterols receptor LXR-beta; assay: Agonist activity at human LXRbeta expressed in human SH-SY5Y cells co-transfected with Gal4-LBD after 24 hrs by luciferase reporter gene assay; assay type: functional, cell-based
Mus musculus [5] = assay: Upregulation of SREBP-1c mRNA level in mouse liver at 1.0 umol/kg, po daily once after 3 days relative to control; assay type: functional
[6] = Permeability across human Caco-2 cell membrane; assay type: ADME, cell-based; details: read-out: permeability
Mus musculus [7] = assay: Upregulation of SREBP-1c mRNA level in mouse liver at 30 umol/kg, po daily once after 3 days relative to control; assay type: functional
Mus musculus [8] = assay: Upregulation of ABCA1 mRNA level in mouse brain homogenates at 30 umol/kg, po daily once after 3 days relative to control; assay type: functional
[9] = biological target: T3, Oxysterols receptor LXR-alpha (Homo sapiens) (UniProt Q13133); assay: Agonist activity at human LXRalpha expressed in human U2OS cells co-transfected with Gal4-LBD after 24 hrs by luciferase reporter gene assay; assay type: functional, cell-based
T3 sequence (whole entry): T1 sequence (Q13133 whole entry)

Rattus norvegicus = assay: Volume of distribution in po dosed rat; assay type: ADME, organism-based; details: in vivo
[10] = Solubility in 0.1 M phosphate buffer at pH 7.4 at 100 uM after 24 hrs by UV-TIC; assay type: physicochemical
[11] = biological target: T4, Oxysterols receptor LXR-beta (Homo sapiens) (UniProt P55055); assay: Agonist activity at human LXRbeta expressed in human U2OS cells co-transfected with Gal4-LBD after 24 hrs by luciferase reporter gene assay; assay type: functional, cell-based
T4 sequence (whole entry): T2 sequence (P55055 whole entry)

[12] = Bioavailability in rat; assay type: ADME, organism-based; details: in vivo
Mus musculus [13] = assay: Upregulation of ABCG1 mRNA level in mouse brain homogenates at 30 umol/kg, po daily once after 3 days relative to control; assay type: functional
[14] = Clearance in po dosed rat; assay type: ADME, organism-based; details: in vivo
[15] = Half life in po dosed rat; assay type: ADME, organism-based; details: in vivo

EC50 [1] [µM]	EC50 [2] [µM]	EC50 [3] [µM]	EC50 [4] [µM]	Compound	also measured
3.61	3.1	2.32	3.81	COC(=O)c1ccc(S(=O)(=O)N(C)c2ccc(NC(=O)C(C)(O)C(F)(F)F)c(Cl)c2)cc1 (stereo not drawn)	
> 30	> 100	> 100	> 30	CN(c1ccc(NC(=O)C(C)(O)C(F)(F)F)c(Cl)c1)S(=O)(=O)c1ccc(C(=O)O)cc1 (stereo not drawn)	
8.5	1	0.79	7.5	CCN(c1ccc(NC(=O)C(C)(O)C(F)(F)F)c(Cl)c1)S(=O)(=O)c1ccccc1Cl (stereo not drawn)	
> 30	0.47	0.58	> 30	C=CCN(c1ccc(NC(=O)C(C)(O)C(F)(F)F)c(Cl)c1)S(=O)(=O)c1ccccc1Cl (stereo not drawn)	
5	1.97	1.5	1.59	Cc1ccc(S(=O)(=O)N(C)c2ccc(NC(=O)[C@](C)(O)C(F)(F)F)c(Cl)c2)cc1	
5	3.4	2.6	2.7	CN(c1ccc(NC(=O)C(C)(O)C(F)(F)F)c(Cl)c1)S(=O)(=O)c1ccc(C#N)cc1 (stereo not drawn)	fold change (FC) (Mus musculus [5]): 3.6; Papp [6]: 28 ×10⁻⁶ cm/s; fold change (FC) (Mus musculus [7]): 1.3; fold change (FC) (Mus musculus [8]): 1.25; Activity [9]: inactive; Vd (Rattus norvegicus): 4.1 L/kg; solubility at 24 h, 100 µM [10]: 61 µM (≈ 28.2 µg/mL); Activity [11]: inactive; bioavailability [12]: 39%; fold change (FC) (Mus musculus [13]): 1.3; CL/F [14]: 24.6 mL/min/kg; half-life [15]: 4.4 h
0.31	0.28	0.078	0.13	O=C(O)Cc1cccc(OCCCN(Cc2cccc(C(F)(F)F)c2Cl)CC(c2ccccc2)c2ccccc2)c1	
> 30	> 100	> 100	> 30	CN(c1ccc(NC(=O)C(C)(O)C(F)(F)F)c(Cl)c1)S(=O)(=O)c1ccc(CCC(=O)O)cc1 (stereo not drawn)	
> 30	1.08	0.94	> 30	CC(O)(C(=O)Nc1ccc(N(CC2CC2)S(=O)(=O)c2ccccc2Cl)cc1Cl)C(F)(F)F (stereo not drawn)	
5	3.3	1.9	0.959	CN(c1ccc(NC(=O)[C@](C)(O)C(F)(F)F)c(Cl)c1)S(=O)(=O)c1ccccc1	
> 30	> 100	0.88	> 30	CC(O)(C(=O)Nc1ccc(N(Cc2ccccc2)S(=O)(=O)c2ccccc2Cl)cc1Cl)C(F)(F)F (stereo not drawn)	
> 30	3.5	3.5	> 30	COC(=O)CCc1ccc(S(=O)(=O)N(C)c2ccc(NC(=O)C(C)(O)C(F)(F)F)c(Cl)c2)cc1 (stereo not drawn)	
1.82		0.626	0.813	CN(c1ccc(NC(=O)[C@](C)(O)C(F)(F)F)c(Cl)c1)S(=O)(=O)c1ccccc1Cl	Activity [9]: inactive; Activity [11]: inactive

Compound	EC50 [1] [µM]	EC50 [2] [µM]	EC50 [3] [µM]	EC50 [4] [µM]	also measured
C[C@H](CC[C@@H]1OC1(C)C)[C@H]1CC[C@H]2[C@@H]3CC=C4C[C@@H](O)CC[C@]4(C)[C@H]3CC[C@]12C [24(S),25-EPOXYCHOLESTEROL]		0.28	0.286	0.4	

Source: ChEMBL document CHEMBL1153343, “Liver X receptor agonists with selectivity for LXRbeta; N-aryl-3,3,3-trifluoro-2-hydroxy-2-methylpropionamides” (Bioorg Med Chem Lett, 2009)
